Reference: ChEMBL document CHEMBL1145110, “Oxidosqualene cyclase inhibitors as antimicrobial agents” (J Med Chem, 2003)

Experiments:
Toxoplasma gondii [1] = test: Tested for inhibition of growth Toxoplasma gondii in a pathogen cell culture assay, at a concentration of 10 uM; format: functional
NIH3T3 = test: Tested for inhibition of growth of NIH3T3 cells a in a pathogen cell culture assay; format: functional; details: Mus musculus, read-out: ED50 (the source's name)
Pneumocystis carinii [2] = test: Tested for inhibition of growth Pneumocystis carinii in a pathogen cell culture assay, at a concentration of 10 uM; format: functional
Trypanosoma brucei [3] = test: Tested for inhibition of growth Trypanosoma brucei in a pathogen cell culture assay; format: functional; details: read-out: ED50 (the source's name)
Trypanosoma cruzi [4] = test: Tested for inhibition of growth Trypanosoma cruzi in a pathogen cell culture assay; format: functional; details: read-out: ED50 (the source's name)
Leishmania mexicana [5] = test: Tested for inhibition of growth Leishmania mexicana in a pathogen cell culture assay; format: functional; details: read-out: ED50 (the source's name)
Pneumocystis carinii [6] = test: Tested for inhibition of growth of Pneumocystis carinii in a pathogen cell culture assay, at a concentration of 10 uM; format: functional
Leishmania mexicana [7] = test: Tested for inhibition of growth of Leishmania mexicana in a pathogen cell culture assay; format: functional; details: read-out: ED50 (the source's name)
Toxoplasma gondii [8] = test: Tested for inhibition of growth of Toxoplasma gondii in a pathogen cell culture assay, at a concentration of 10 uM; format: functional
Trypanosoma brucei [9] = test: Tested for inhibition of growth of Trypanosoma brucei in a pathogen cell culture assay; format: functional; details: read-out: ED50 (the source's name)
Trypanosoma cruzi [10] = test: Tested for inhibition of growth of Trypanosoma cruzi in a pathogen cell culture assay; format: functional; details: read-out: ED50 (the source's name)
Lanosterol synthase = target: T1, Lanosterol synthase (Rattus norvegicus, UniProt P48450); test: Tested for Oxidosqualene-lanosterol cyclase inhibition in rat
T1 sequence (P48450 whole entry): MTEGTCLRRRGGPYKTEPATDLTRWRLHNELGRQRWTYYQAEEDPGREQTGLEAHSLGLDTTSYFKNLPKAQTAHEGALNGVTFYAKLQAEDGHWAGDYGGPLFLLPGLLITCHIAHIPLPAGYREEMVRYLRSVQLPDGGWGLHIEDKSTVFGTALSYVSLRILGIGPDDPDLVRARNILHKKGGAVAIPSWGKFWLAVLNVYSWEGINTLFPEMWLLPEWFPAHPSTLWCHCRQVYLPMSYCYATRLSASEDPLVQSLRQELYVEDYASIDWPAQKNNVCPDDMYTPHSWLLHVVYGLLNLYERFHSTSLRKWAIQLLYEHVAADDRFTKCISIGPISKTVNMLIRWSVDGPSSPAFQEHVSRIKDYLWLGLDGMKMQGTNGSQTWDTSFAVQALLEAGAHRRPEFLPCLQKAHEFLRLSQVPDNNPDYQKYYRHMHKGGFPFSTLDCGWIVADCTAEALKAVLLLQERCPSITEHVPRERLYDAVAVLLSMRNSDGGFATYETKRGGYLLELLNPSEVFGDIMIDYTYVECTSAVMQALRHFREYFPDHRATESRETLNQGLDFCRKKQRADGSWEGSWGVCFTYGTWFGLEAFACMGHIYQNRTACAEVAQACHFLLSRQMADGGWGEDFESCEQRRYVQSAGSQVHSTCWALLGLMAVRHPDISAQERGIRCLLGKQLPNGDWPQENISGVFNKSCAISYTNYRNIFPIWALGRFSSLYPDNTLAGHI

Row | EC50 (Trypanosoma brucei [3]) | EC50 (Trypanosoma cruzi [4]) | IC50 (Lanosterol synthase) | SMILES | inhibition at 10 µM (Toxoplasma gondii [1]) | EC50 (NIH3T3) | inhibition at 10 µM (Pneumocystis carinii [2]) | EC50 (Leishmania mexicana [5]) | inhibition at 10 µM (Pneumocystis carinii [6]) | EC50 (Leishmania mexicana [7]) | inhibition at 10 µM (Toxoplasma gondii [8]) | EC50 (Trypanosoma brucei [9]) | EC50 (Trypanosoma cruzi [10])
1 | > 10000 nM | > 10000 nM | – | CCN(CC)CCOc1ccc(-c2ccccc2)cc1 | < 1% | > 10000 nM | 95% | 10000 nM | – | – | – | – | –
2 | – | – | 49 nM | C=CCN(C)CCCCCCOc1ccc(C(=O)c2ccc(Cl)cc2)c(F)c1 | – | – | – | – | – | – | – | – | –
3 | > 10000 nM | 1000 nM | – | O=C(c1ccc(Cl)cc1)c1ccc(OCCN2CCN(CCO)CC2)cc1 | 28% | > 10000 nM | 95% | 400 nM | – | – | – | – | –
4 | > 10000 nM | 1000 nM | 2500 nM | CN(C)CCCOc1ccc(-c2ccccc2)cc1 | 17% | > 10000 nM | 95% | 400 nM | – | – | – | – | –
5 | > 10000 nM | 1000 nM | – | CN(C)CCCOc1ccc(C(=O)c2ccc(Cl)cc2)cc1 | 17% | > 10000 nM | 95% | 400 nM | – | – | – | – | –
6 | > 10000 nM | 1000 nM | – | OCCN1CCN(CCOc2ccc(-c3ccccc3)cc2)CC1 | 28% | > 10000 nM | 95% | 400 nM | – | – | – | – | –

Row | SMILES | EC50 (Trypanosoma brucei [3]) | EC50 (Trypanosoma cruzi [4]) | IC50 (Lanosterol synthase) | inhibition at 10 µM (Toxoplasma gondii [1]) | EC50 (NIH3T3) | inhibition at 10 µM (Pneumocystis carinii [2]) | EC50 (Leishmania mexicana [5]) | inhibition at 10 µM (Pneumocystis carinii [6]) | EC50 (Leishmania mexicana [7]) | inhibition at 10 µM (Toxoplasma gondii [8]) | EC50 (Trypanosoma brucei [9]) | EC50 (Trypanosoma cruzi [10])
7 | O=C(c1ccc(Cl)cc1)c1ccc(OC2CN3CCC2CC3)cc1 (centres undefined) | – | – | 160 nM | – | > 10000 nM | – | – | 81% | 400 nM | 48% | > 10000 nM | 1000 nM
